According to patent US5677419A, “Cyclic vasoactive peptide analogs” (Hoffmann-La Roche Inc., priority 1994, dated 1997):
Where a SMILES comes first, the peptide text is derived from it. Bridges are numbered along the chain shown (N, C = ends). [ ]: non-standard residue; d: D form. Nle = CCCC[C@H](N)C(=O)O

Test system: guinea pig tracheal smooth muscle
Test: Tracheal relaxant activity of VIP analogs on isolated guinea pig tracheal rings
Type: cell-based
Conditions: cumulative concentration response, relaxation as % of maximum response to VIP (10^-6 M=100%), three tissues pooled, linear regression
Protocol: The relaxant activity of the VIP analogs were studied in a model utilizing guinea pig trachea. [Wasserman, M. A. et al., in Vasoactive Intestinal Peptide, S. I. Said, ed., Raven Press, New York 1982, pp 177-184] All tissues were taken from male albino guinea pig weighing 400-600 g, anesthetized with urethane (2 g/kg, i.p.). After exanguination, the trachea were removed and divided into four ring segments (3 mm length). Each ring was suspended by 30 gauge stainless steel wires in a 10 mL jacketed tissue bath and attached via 4-0 silk thread to a GRASS force displacement transducer (model FT03C, Grass Instruments Co., Quincy, Mass.), for isometric recording of tension. The smooth muscle was bathed in modified Krebs solution of the following composition: NaCl, 120 mM; KCl, 4.7 mM; CaCl2, 2.5 mM; MgSO4.7H2 O, 1.2 mM; NaHCO3, 25 mM; K2 HPO4 monobasic, 1.2 mM; and dextrose, 10 mM. Tissue baths were maintained at 37° C. and constantly bubbled with 95% O2 and 5% CO2. Responses were recorded on an 8 channel and a 4 channel HEWLETT-PACKARD (model 7702B and 7754A, respectively) recorder (Hewlett- Packard, Paramus, N.J.). Tracheal rings were placed under a resting tension of 1.5 g which was determined to be at or near optimal in preliminary experiments. Frequent readjustments of tension were required during the 60 minute stabilization period which followed. Tissues were rinsed at 15 minute intervals.
Cumulative concentration response curves were obtained for each tissue by successive […] increases in the bath concentration of VIP or VIP analogs according to the method of VanRossum [Arch. Int. Pharmacodyn., 143, 299-330 (1963)]. Only one cumulative dose response curve was obtained on a single tissue. To minimize variability between tissues, relaxant responses were expressed as a percentage of the maximum response obtained to VIP (10^-6 M=100%) added at the end of each concentration response experiment. Responses obtained from three tissues were pooled and EC50 values were determined by linear regression.
The results summarized in Table I show the tracheal relaxant activity of the VIP analogs in comparison to native VIP.

| EC50 [nM] | SMILES |
| --- | --- |
| 17 | CCCC[C@H](NC(=O)[C@H](CCC(N)=O)NC(=O)[C@H](CCCCN)NC(=O)[C@H](CCCNC(=N)N)NC(=O)[C@H](CC(C)C)NC(=O)[C@@H]1CCCCNC(=O)C[C@H](NC(=O)[C@H](CC(N)=O)NC(=O)[C@@H](NC(=O)[C@H](Cc2ccccc2)NC(=O)[C@@H](NC(=O)[C@H](C)NC(=O)[C@H](CC(=O)O)NC(=O)[C@H](CO)NC(=O)[C@H](Cc2c[nH]cn2)NC(C)=O)C(C)C)[C@@H](C)O)C(=O)N[C@@H](Cc2ccc(O)cc2)C(=O)N[C@@H]([C@@H](C)O)C(=O)N1)C(=O)N[C@@H](C)C(=O)N[C@H](C(=O)N[C@@H](CCCCN)C(=O)N[C@@H](CCCCN)C(=O)N[C@@H](Cc1ccc(O)cc1)C(=O)N[C@@H](CC(C)C)C(=O)N[C@@H](CC(N)=O)C(=O)N[C@@H](CO)C(=O)N[C@H](C(=O)N[C@@H](CC(C)C)C(=O)N[C@H](C(N)=O)[C@@H](C)O)C(C)C)C(C)C [SEQ ID NO:22, Ac-[Asn^8,Asp^9,Lys^12,Nle^17,Val^26,Thr^28]-VIP cyclo (Asp^9 →Lys^12)] (Ac-HSDAVFTNDYTKLRKQ[Nle]AVKKYLNSVLT-NH2; lactam 9-12) |
| 0.84 | CCCC[C@H](NC(=O)[C@H](CCC(N)=O)NC(=O)[C@H](CCCCN)NC(=O)[C@H](CCCNC(=N)N)NC(=O)[C@H](CC(C)C)NC(=O)[C@H](CC(C)C)NC(=O)[C@@H](NC(=O)[C@H](Cc1ccc(OC)cc1)NC(=O)[C@H](CC(N)=O)NC(=O)[C@H](CC(=O)O)NC(=O)[C@@H](NC(=O)[C@H](Cc1ccccc1)NC(=O)[C@@H](NC(=O)[C@H](C)NC(=O)[C@H](CC(=O)O)NC(=O)[C@H](CO)NC(=O)[C@H](Cc1c[nH]cn1)NC(C)=O)C(C)C)[C@@H](C)O)[C@@H](C)O)C(=O)N[C@@H](C)C(=O)N[C@@H](C)C(=O)N[C@@H](CCCCN)C(=O)N[C@H]1CCCCNC(=O)C[C@@H](C(=O)N[C@H](C(=O)N[C@@H](CC(C)C)C(=O)N[C@H](C(N)=O)[C@@H](C)O)C(C)C)NC(=O)[C@H](CC(N)=O)NC(=O)[C@H](CC(C)C)NC(=O)[C@H](Cc2ccc(O)cc2)NC1=O [SEQ ID NO:36, Ac-[O-Me-Tyr^10,Leu^12,Nle^17,Ala^19,Asp^25,Val^26,Thr^28]-VIP cyclo (Lys^21 →Asp^25)] (Ac-HSDAVFTDNY(Me)TLLRKQ[Nle]AAKKYLNDVLT-NH2; lactam 21-25) |
| 0.9 | CCCC[C@H](NC(=O)[C@H](C)NC(=O)[C@H](CCCCN)NC(=O)[C@H](CCCNC(=N)N)NC(=O)[C@H](CC(C)C)NC(=O)[C@H](CCCCN)NC(=O)[C@@H](NC(=O)[C@H](Cc1ccc(O)cc1)NC(=O)[C@H](CC(N)=O)NC(=O)[C@H](CCC(=O)O)NC(=O)[C@@H](NC(=O)[C@H](Cc1ccccc1)NC(=O)[C@@H](NC(=O)[C@H](C)NC(=O)[C@H](CC(=O)O)NC(=O)[C@H](CO)NC(=O)[C@H](Cc1c[nH]cn1)NC(C)=O)C(C)C)[C@@H](C)O)[C@@H](C)O)C(=O)N[C@@H](C)C(=O)N[C@@H](C)C(=O)N[C@@H](CCCCN)C(=O)N[C@H]1CCCCNC(=O)C[C@@H](C(=O)N[C@@H](CC(C)C)C(=O)N[C@@H](CCCCN)C(=O)N[C@@H](CCCCN)C(N)=O)NC(=O)[C@H](CC(N)=O)NC(=O)[C@H](CC(C)C)NC(=O)[C@H](Cc2ccc(O)cc2)NC1=O [SEQ ID NO:63, Ac-[Glu^8,Lys^12,Ala^16,Nle^17,Ala^19,Asp^25,Leu^26,Lys^27,28]-VIP cyclo (Lys^21 →Asp^25)] (Ac-HSDAVFTENYTKLRKA[Nle]AAKKYLNDLKK-NH2; lactam 21-25) |
